Here are results for ten molecules from patent publication US5254682A, “Cyclic renin inhibitors containing 3(S)-amino-4-cyclohexyl-2(R)-hydroxy-butanoic acid or 4-cyclo-hexyl-(2R, 3S)-dihydroxybutanoic acid or related analogs” (Merck & Co., Inc., priority 1991, dated 1993).

Read-outs that look alike come from different tables or passages of the source. Where a SMILES comes first, the peptide text is derived from it. [ ]: non-standard residue; d: D form. The star is where a group is joined. Sta = CC(C)C[C@H](N)[C@@H](O)CC(=O)O; Isovaleryl = CC(C)CC(=O)*

The conditions of data set [1]: amide bond, 2 steps.
In data set [2] the test system is sodium-deficient Rhesus monkeys. The data set is described as follows: intravenous evaluation of renin inhibitors in conscious sodium-deficient Rhesus monkeys (blood pressure lowering). It is filed as in vivo. The note with it: i.v. bolus. The text has this: The following methods were used for in vivo evaluation of the renin inhibitors of Formula I: Intravenous evaluation of renin inhibitors in concious sodium-deficient Rhesus monkeys: Rhesus monkeys, male and female, weighing 2.6-4.5 Kg, were surgically prepared with chronic arterial and venous catheters and vascular access ports for direct monitoring of mean arterial pressure (MAP) and heart rate (HR). The animals were maintained on a low sodium diet (1.2 mmol Na/day) plus fruit for a week, and administered LASIX (furosemide) at 2.5 mg/Kg, intramuscularly the evening prior to the experiment. The animals had been trained to sit quietly in the chairs with water ad libium for the duration of the experiment. The inhibitors were administered by bolus injection using 0.5% acetic acid-5% dextrose in water as the vehicle (0.4 ml/Kg), and MAP and HR were measured. Blood samples were withdrawn at different time intervals beginning at the nadir of hypotensive response. PRA was determined as described above. […] A projected ED50 dose for each inhibitor was calculated using the following formula: ED50 (Test Inhibitor, umoles/Kg)=ED50 (SCRIP) X [IC50 (Test Inhibitor)/IC50 (SCRIP)], where the IC50 values were determined against human plasma renin. […] Percent inhibition of monkey PRA, changes in MAP and HR were calculated and plotted against time. […]

The molecule `O=C(N[C@H]1CSCCCCOC(=O)[C@H](O)[C@H](CC2CCCCC2)NC1=O)OCc1ccccc1` showed a ring closure, yield of all isomers in data set [1] (from N[C@@H](CC1CCCCC1)[C@@H](O)C(=O)OCCCCSC[C@H](NC(=O)OCc1ccccc1)C(=O)O) of 34%. For the molecule `CC(C)(C)OC(=O)N[C@H]1CCC(=O)NCCCC2(OCCO2)[C@H](O)[C@H](CC2CCCCC2)NC1=O`, the ring closure, yield of all isomers in data set [1] (from CC(C)(C)OC(=O)N[C@@H](CCC(=O)OCc1ccccc1)C(=O)N[C@@H](CC1CCCCC1)[C@@H](O)C1(CCCN=[N+]=[N-])OCCO1, DPPA, triethylamine) was determined as 30%.

In data set [1] (from CC(C)CC(CNC(=O)CC[C@H](NC(=O)OCc1ccccc1)C(=O)OC(C)(C)C)OC(=O)[C@@H]1OC(C)(C)N(C(=O)OC(C)(C)C)[C@H]1CC1CCCCC1, THF), `CC(C)CC1CNC(=O)CC[C@H](NC(=O)OCc2ccccc2)C(=O)N[C@@H](CC2CCCCC2)[C@@H](O)C(=O)O1` (stereo partly shown) had a ring closure, yield of all isomers of 51%.

Molecule `CC(C)(C)OC(=O)N[C@H]1CNC(=O)CCCCOC(=O)[C@H](O)[C@H](CC2CCCCC2)NC1=O` displayed a ring closure, yield of all isomers in data set [1] (from CC(C)(C)OC(=O)N[C@@H](CNC(=O)OCc1ccccc1)C(=O)N[C@@H](CC1CCCCC1)[C@@H](O)C(=O)OCCCCC(=O)OCc1ccccc1, DPPA, triethylamine) of 27%. In data set [1] (from N[C@@H](CC1CCCCC1)[C@@H](O)C(=O)O[C@H](CCCSC[C@H](NC(=O)OCc1ccccc1)C(=O)O)CN1CCOCC1), `O=C(N[C@H]1CSCCC[C@H](CN2CCOCC2)OC(=O)[C@H](O)[C@H](CC2CCCCC2)NC1=O)OCc1ccccc1` came in with a ring closure, yield of all isomers of 38%. `CC1CC(=O)NCCOC(=O)[C@H](O)[C@H](CC2CCCCC2)NC(=O)[C@H]1NC(=O)OCc1ccccc1` (stereo partly shown) displayed a ring closure, yield of all isomers in data set [1] (from CC(CC(=O)NCCOC(=O)[C@@H]1OC(C)(C)N(C(=O)OC(C)(C)C)[C@H]1CC1CCCCC1)[C@H](NC(=O)OCc1ccccc1)C(=O)OCC[Si](C)(C)C) of 62%. With `CCCCC1CNC(=O)CC[C@H](NC(=O)OCc2ccccc2)C(=O)N[C@@H](CC2CCCCC2)[C@@H](O)C(=O)O1` (stereo partly shown), the ring closure, yield of all isomers in data set [1] (from CCCCC(CNC(=O)CC[C@H](NC(=O)OCc1ccccc1)C(=O)OC(C)(C)C)OC(=O)[C@@H]1OC(C)(C)N(C(=O)OC(C)(C)C)[C@H]1CC1CCCCC1, EDC/HOBt) amounted to 54%.

In data set [1] (from CC(C)(C)OC(=O)[C@H](CCC(=O)OCC(CN1CCOCC1)OC(=O)[C@@H]1OC(C)(C)N(C(=O)OC(C)(C)C)[C@H]1CC1CCCCC1)NC(=O)OCc1ccccc1, THF), `O=C1CC[C@H](NC(=O)OCc2ccccc2)C(=O)N[C@@H](CC2CCCCC2)[C@@H](O)C(=O)OC(CN2CCOCC2)CO1` (stereo partly shown) came in with a ring closure, yield of all isomers of 32%. For `CC(C)CC(=O)N[C@@H](Cc1c[nH]cn1)C(=O)N1CCC[C@H]1C(=O)N[C@@H](Cc1ccccc1)C(=O)N[C@@H](Cc1c[nH]cn1)C(=O)N[C@@H](CC(C)C)[C@@H](O)CC(=O)N[C@@H](CC(C)C)C(=O)N[C@@H](Cc1ccccc1)C(N)=O` [SCRIP, Iva-His-Pro-Phe-His-Sta-Leu-Phe-NH2] (Isovaleryl-HPFH[Sta]LF-NH2), the “ED50 (i.v. dose required to lower blood pressure by 50% of the maximal response)” value in data set [2] is 0.039 µmol/kg. Regarding `O=C1CC[C@H](NC(=O)OCc2ccccc2)C(=O)N[C@@H](CC2CCCCC2)[C@@H](O)C(=O)OC(CN2CCOCC2)CN1` (stereo partly shown), in data set [1] (from CC(C)(C)OC(=O)[C@H](CCC(=O)NCC(CN1CCOCC1)OC(=O)[C@@H]1OC(C)(C)N(C(=O)OC(C)(C)C)[C@H]1CC1CCCCC1)NC(=O)OCc1ccccc1), the ring closure, yield of all isomers is 61%.
